Laboratory results as given in patent US5801178A, “Aniline derivative having polyunsaturated fatty acid residue and use thereof” (Nippon Shoji Kaish Ltd., priority 1995, dated 1998).

Key:
[1] = tested on: ACAT derived from rat liver; experiment: Inhibitory activity against ACAT derived from rat liver microsome; assay type: biochemical; details: pH 7.4, 37° C., 30 minutes
Description: Inhibitory activity against ACAT derived from rat liver microsome
(§1) Using, as an enzyme source, the microsomal fractions prepared from rat liver in the manner described below under Preparation of Microsome, the inhibitory activity against ACAT in the microsome fractions was determined as in the following. The compound of the present invention was dissolved in dimethyl sulfoxide and used as a sample solution. [1-^14 C] […] Ethanol (1 ml) was added to stop the reaction, and n-hexane (4.5 ml) was added. The reaction mixture was centrifuged at 2,000 rpm for 2 minutes and the upper n-hexane layer was separated and recovered, whereby cholesterol oleate (reaction product) was extracted. n-Hexane was evaporated with a nitrogen gas and the residue was re-dissolved dissolved in n-hexane (50 μl), which was used as a sample for thin-layer chromatography. […] After developing, the spot of cholesterol oleate was colored with iodine. The spot was cut out and dissolved in a xylene scintillator (Aquasol-2, Daiichi Pure Chemicals Co., Ltd.). The amount of cholesterol oleate was determined using a liquid scintillation counter.
The liver was removed from a fasted rat and thoroughly perfused with 0.25M sucrose solution. The liver was weighed, minced with scissors or razor and placed in a Teflon homogenizer. The liver was homogenized with 9 volumes [9 ml per g (wet weight) of liver] of 0.25M sucrose solution or 50 mM Tris-HCl buffer (pH 7.5) containing 0.25M sucrose and 5 mM MgCl2. The homogenate was centrifuged at 8,000-10,000 g for 10-15 minutes. The obtained supernatant was centrifuged at 105,000 g for 60-90 minutes. The sediment obtained from this centrifugation was suspended in 150 mM potassium phosphate buffer (pH 7.4) to give a microsomal fraction.

[2] = target: T1, ACAT derived from human macrophage (Homo sapiens, UniProt P35610); experiment: Inhibitory activity against ACAT derived from human macrophage (microsomes of TPA-differentiated U937 cells); assay type: biochemical; details: for Selectivity: Table 1, rat liver ACAT IC50 / human macrophage ACAT IC50; for IC50: human macrophage (U937/TPA) microsome, pH 7.4, 37° C., 30 minutes; for selectivity (times greater, human macrophage ACAT vs rat liver ACAT): linoleoylamide derivatives
T1 construct: Using, as an enzyme source, microsomal fractions prepared in the manner described below under Preparation of Microsome from U937 cells; endogenous in cells; host or cells: U937 cells differentiated with TPA, microsomal fraction
T1 sequence (P35610 1-550): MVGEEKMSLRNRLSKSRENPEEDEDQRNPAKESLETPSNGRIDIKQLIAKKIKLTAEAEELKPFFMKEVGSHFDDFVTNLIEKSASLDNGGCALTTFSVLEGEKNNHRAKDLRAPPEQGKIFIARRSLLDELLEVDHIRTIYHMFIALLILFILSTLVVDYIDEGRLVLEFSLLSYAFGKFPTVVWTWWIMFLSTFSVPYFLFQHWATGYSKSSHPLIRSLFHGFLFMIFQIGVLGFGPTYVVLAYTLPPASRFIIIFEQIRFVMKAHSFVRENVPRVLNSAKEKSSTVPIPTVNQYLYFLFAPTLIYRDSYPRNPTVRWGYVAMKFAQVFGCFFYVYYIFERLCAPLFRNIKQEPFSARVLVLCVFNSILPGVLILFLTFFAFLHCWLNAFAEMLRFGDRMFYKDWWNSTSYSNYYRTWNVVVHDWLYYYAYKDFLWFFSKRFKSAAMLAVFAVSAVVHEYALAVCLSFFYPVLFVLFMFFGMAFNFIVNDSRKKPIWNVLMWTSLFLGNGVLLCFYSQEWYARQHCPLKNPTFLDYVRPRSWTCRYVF
Description: Inhibitory activity against ACAT derived from human macrophage
as §1, with “source,” for “source, the”, “prepared” for “prepared from rat liver”, “Microsome from U937 cells [human monocyte-derived cells known to differentiate into macrophages by the addition of TPA (12-O-tetradecanoylphorbol 13-acetate)] differentiated with TPA,” for “Microsome,”, “re-dissolved” for “re-dissolved dissolved”, “with” for “using”
The cells thus scraped and the culture solution were centrifuged at 3,000 rpm for 5 minutes, and the cell fractions obtained as precipitate were once freezed at -70° C. and preserved. The cells preserved at -70° C. were thawed and homogenized at 4° C. in a Teflon homogenizer. The homogenate was centrifuged at 12,000 g for 15 minutes. The precipitate fractions containing nuclea and mitochondria were removed and the obtained supernatant was further centrifuged at 100,000 g for 60 minutes. The supernatant was discarded, and the obtained precipitate fractions were suspended in 150 mM potassium phosphate buffer (pH 7.4) and used as a microsomal fraction.

[3] = Reduction of cholesterol in blood of cholesterol-loaded rats; assay type: in vivo, Male slc:SD (SPF) rats; details: serum total cholesterol; 90 mg/kg/day orally, five days; average of 8 rats; control taken as 100%
Text: Reduction of cholesterol in blood of rats
Male slc:SD (SPF) rats (4 weeks of age weighing 70-90 g, Japan SLC Inc.) were randomly divided into 8 per group and bred for 3 days on a normal diet (solid diet for test animals, MF, manufactured by Oriental Yeast CO., LTD.). Then, the aforementioned diet supplemented with 5% cholesterol, 10% olive oil and 0.5% cholic acid was freely fed for 10 days. During the last five days, the test compound (Compounds 3-6, 8, 11 and 12) suspended in 0.5% aqueous methylcellulose solution was forcibly administered orally once a day in a dose of 10 ml/kg which contains 90 mg/kg/day of the test compound (total dose of the test compound being 450 mg/kg). The rats were fasted for 16 hours after the final administration and etherized. The blood was taken from the abdominal aorta, and serum was separated by centrifugation to determine the total cholesterol content in the serum. The control group was administered with 0.5% aqueous methylcellulose solution instead of the test compound suspended in 0.5% aqueous methylcellulose solution.
* is an average of 8 rats per group based on the cholesterol content in
blood of control which was taken as 100%.

SMILES	IC50 [1]	Selectivity [2]	IC50 [2]	Reduction of cholesterol in cholesterol-loaded rats, %* [3]	selectivity (times greater, human macrophage ACAT vs rat liver ACAT) [2]	ACAT inhibitory activity (in words) ([2]; human macrophage ACAT)
CCC=CCC=CCC=CCC=CCC=CCCCC(=O)Nc1c(C)cccc1C [Compound 7, N-(2,6-dimethylphenyl)-5,8,11,14,17-eicosapentaenamide]	4.25 µM	70.8	0.06 µM			
CCC=CCC=CCC=CCC=CCC=CCC=CCCC(=O)Nc1c(C(C)C)cccc1C(C)C [Compound 12, N-(2,6-diisopropylphenyl)-4,7,10,13,16,19-docosahexaenamide]	52.7 µM			64%		
CCCCC/C=C\C/C=C\CCCCCCCC(=O)Nc1c(CC)cccc1CC [reference compound]	0.1 µM		0.02 µM		about five times	
CCCCCC=CCC=CCCCCCCCC(=O)Nc1c(C)cccc1C [reference compound]	0.14 µM		0.07 µM		about twice	
CCCCC/C=C\C/C=C\CCCCCCCC(=O)Nc1c(C(C)C)cccc1C(C)C [reference compound]	0.09 µM		0.006 µM		about fifteen times	
CCC=CCC=CCC=CCC=CCC=CCC=CCCC(=O)Nc1c(CC)cccc1CC [Compound 10, N-(2,6-diethylphenyl)-4,7,10,13,16,19-docosahexaenamide]	11.5 µM	395	0.029 µM			
CCC=CCC=CCC=CCC=CCC=CCC=CCCC(=O)N1CCN(C(=O)Nc2c(C(C)C)cccc2C(C)C)CC1 [Compound 16, N-(4,7,10,13,16,19-docosahexaenoyl)-N'-(2,6-diisopropylanilinocarbonyl)piperazine]	> 500 µM	> 725	0.69 µM			
CCC=CCC=CCC=CCC=CCC=CCCCC(=O)Nc1ccc(CNC(=O)Nc2c(C(C)C)cccc2C(C)C)cc1 [Compound 19, N-{4-(5,8,11,14,17-eicosapentaenoylamino)phenylmethyl}-N'-(2,6-diisopropylphenyl)urea]	> 500 µM	> 3333	0.15 µM			
CCC=CCC=CCC=CCC=CCC=CCCCC(=O)NC1CCCCC1NC(=O)Nc1c(C(C)C)cccc1C(C)C (centres unmarked) [Compound 17, N-(5,8,11,14,17-eocosapentaenoyl)-N'-(2,6-diisopropylanilinocarbonyl)-1,2-diaminocyclohexane]	> 500 µM	> 269	1.86 µM			
CCC=CCC=CCC=CCC=CCC=CCCCC(=O)N1CCN(C(=O)Nc2c(C(C)C)cccc2C(C)C)CC1 [Compound 15, N-(5,8,11,14,17-eicosapentaenoyl)-N'-(2,6-diisopropylanilinocarbonyl)piperazine]	> 500 µM	> 463	1.08 µM			
CCC=CCC=CCC=CCC=CCC=CCCCC(=O)NCc1ccc(NC(=O)Nc2c(C(C)C)cccc2C(C)C)cc1 [Compound 21, N-{4-(5,8,11,14,17-eicosapentaenoylaminomethyl)phenyl}-N'-(2,6-diisopropylphenyl)urea]	> 500 µM	>75.3	6.64 µM			
CCC=CCC=CCC=CCC=CCC=CCCCC(=O)Nc1c(CC)cccc1CC [Compound 9, N-(2,6-diethylphenyl)-5,8,11,14,17-eicosapentaenamide]	1.08 µM	60	0.018 µM			
CCCCC/C=C\C/C=C\CCCCCCCC(=O)Nc1c(OC)cc(OC)cc1OC [reference compound]	0.87 µM		0.67 µM		scarce selectivity	
CCC=CCC=CCC=CCC=CCC=CCCCC(=O)NCCNC(=O)Nc1c(C(C)C)cccc1C(C)C [Compound 13, N-(5,8,11,14,17-eicosapentaenoyl)-N'-(2,6-diisopropylanilinocarbonyl)ethylenediamine]	> 500 µM	> 746	0.67 µM			
CCC=CCC=CCC=CCC=CCC=CCC=CCCC(=O)NC1CCCCC1NC(=O)Nc1c(C(C)C)cccc1C(C)C (centres unmarked) [Compound 18, N-(4,7,10,13,16,19-docosahexaenoyl)-N'-(2,6-diisopropylanilinocarbonyl)-1,2-diaminocyclohexane]	> 500 µM	> 190	2.63 µM			
CCC=CCC=CCC=CCC=CCC=CCCCC(=O)Nc1c(OC)cc(OC)cc1OC [Compound 1, N-(2,4,6-trimethoxyphenyl)-5,8,11,14,17-eicosapentaenamide]	13.4 µM	49.6	0.27 µM			
CCC=CCC=CCC=CCC=CCC=CCC=CCCC(=O)Nc1ccc(CNC(=O)Nc2c(C(C)C)cccc2C(C)C)cc1 [Compound 20, N-{4-(4,7,10,13,16,19-docosahexaenoylamino)phenylmethyl}-N'-(2,6-diisopropylphenyl)urea]	20.2 µM	18.4	1.1 µM			
CCC=CCC=CCC=CCC=CCC=CCC=CCCC(=O)Nc1c(OC)cc(OC)cc1OC [Compound 2, N-(2,4,6-trimethoxyphenyl)-4,7,10,13,16,19-docosahexaenamide]	20.3 µM	40.6	0.5 µM			
CCCCC/C=C\C/C=C\CCCCCCCC(=O)N1CCN(C(=O)Nc2c(C(C)C)cccc2C(C)C)CC1 [reference compound]	≥ 500 µM		4.61 µM			low activity
CCC=CCC=CCC=CCC=CCC=CCC=CCCC(=O)NCc1ccc(NC(=O)Nc2c(C(C)C)cccc2C(C)C)cc1 [Compound 22, N-{4-(4,7,10,13,16,19-docosahexaenoylaminomethyl)phenyl}-N'-(2,6-diisopropylphenyl)urea]	> 500 µM	>27.9	17.9 µM			
CCC=CCC=CCC=CCC=CCC=CCC=CCCC(=O)NCCNC(=O)Nc1c(C(C)C)cccc1C(C)C [Compound 14, N-(4,7,10,13,16,19-docosahexaenoyl)-N'-(2,6-diisopropylanilinocarbonyl)ethylenediamine]	> 500 µM	> 111	4.52 µM			
